Results: patent US20060003016A1, “Therapeutic method for endolymphatic hydrops associated diseases” (priority 2004, published 2006)
Where two headings read alike, the source gives them in different places.

Key:
[1] = system: patients with Meniere's disease and endolymphatic hydrops associated diseases; details: for hearing level / hearing level, average (500-4000 Hz): case 4, right ear; for hearing level after treatment / hearing level after treatment, average (500-4000 Hz) / hearing improved as compared with before the treatment (four-frequency PTA): water intake
Description: (§1) In the present case who could be followed up for more than 24 months after treatment with water intake, the therapeutic effect was judged by using the criteria of AAO-HNS (1995)^14), 15). Proviso that in an examination on changes of the hearing, although the criteria in the four-frequency pure-tone averages (PTA) of AAO-HNS (1995)^14) adopted mean values of the hearing levels consisting of 500 Hz, 1000 Hz, 2000 Hz and 3000 Hz, in our case, the value of 4000 Hz was used in stead of that of 3000 Hz.
In each figure, a horizontal axis indicates frequency (Hz) and a vertical axis indicates hearing level. […] A graph in the upper position indicates better hearing level.

[2] = system: patients with Meniere's disease
Description: as §1
Therapeutic effect for vertigo^14), 15) was calculated according to the following equation. [formula]
Namely, in the present case, vertiginous attack in 6 months during 18 months-24 months after the treatment was 0 time, and average numbers of rotatory vertigo per month for 6 months before the treatment were 2 times (i.e. onset in Mar. 5, 2000 and Jul. 22, 2000 within 6 months before Aug. 5, 2000). Consequently, applying the above equation: [formula] […] Clinical Case 4 Low Frequency Sensorineural Hearing Loss of the Right Ear

O [water intake, water]
hearing level ([1]; 4000 Hz, Jan. 2004, water intake 1.5 lit./day): 25 dB
hearing level ([1]; 4000 Hz, Jul. 2003, water intake 1.5 lit./day): 60 dB
hearing level ([1]; 4000 Hz, Jun. 2003, water intake 1.5 lit./day from Jun. 20, 2003): 25 dB
hearing level ([1]; 4000 Hz, Nov. 2003, water intake 1.5 lit./day): 35 dB
hearing level ([1]; 4000 Hz, Oct. 2003, water intake 1.5 lit./day): 30 dB
hearing level ([1]; 4000 Hz, Sep. 2003, water intake 1.5 lit./day): 40 dB
hearing level ([1]; 8000 Hz, Aug. 2003, water intake 1.5 lit./day): 75 dB
hearing level ([1]; 8000 Hz, Dec. 2003, water intake 1.5 lit./day): 60 dB
hearing level ([1]; 8000 Hz, Jan. 2004, water intake 1.5 lit./day): 65 dB
hearing level ([1]; 8000 Hz, Jul. 2003, water intake 1.5 lit./day): 85 dB
hearing level ([1]; 8000 Hz, Jun. 2003, water intake 1.5 lit./day from Jun. 20, 2003): 75 dB
hearing level ([1]; 8000 Hz, Nov. 2003, water intake 1.5 lit./day): 65 dB
hearing level ([1]; 8000 Hz, Oct. 2003, water intake 1.5 lit./day): 80 dB
hearing level ([1]; 8000 Hz, Sep. 2003, water intake 1.5 lit./day): 80 dB
hearing level, average (500-4000 Hz) ([1]; Aug. 2003, water intake 1.5 lit./day): 26.25 dB
hearing level, average (500-4000 Hz) ([1]; Dec. 2003, water intake 1.5 lit./day): 22.5 dB
hearing level, average (500-4000 Hz) ([1]; Jan. 2004, water intake 1.5 lit./day): 22.5 dB
hearing level, average (500-4000 Hz) ([1]; Jul. 2003, water intake 1.5 lit./day): 50.0 dB
hearing level, average (500-4000 Hz) ([1]; Jun. 2003, water intake 1.5 lit./day from Jun. 20, 2003): 35.0 dB
hearing level, average (500-4000 Hz) ([1]; Nov. 2003, water intake 1.5 lit./day): 23.75 dB
hearing level, average (500-4000 Hz) ([1]; Oct. 2003, water intake 1.5 lit./day): 25.0 dB
hearing level, average (500-4000 Hz) ([1]; Sep. 2003, water intake 1.5 lit./day): 41.25 dB
hearing level after treatment ([1]; case 6, right ear, 125 Hz, Apr. 11, 2002, poorest level 18-24 months after treatment): 65 dB
hearing level after treatment ([1]; case 6, right ear, 250 Hz, Apr. 11, 2002, poorest level 18-24 months after treatment, before 85 dB): 80 dB
hearing level after treatment ([1]; case 6, right ear, 500 Hz, Apr. 11, 2002, poorest level 18-24 months after treatment, before 85 dB): 80 dB
hearing level after treatment ([1]; case 6, right ear, 1000 Hz, Apr. 11, 2002, poorest level 18-24 months after treatment, before 85 dB): 85 dB
hearing level after treatment ([1]; case 6, right ear, 2000 Hz, Apr. 11, 2002, poorest level 18-24 months after treatment, before 75 dB): 75 dB
hearing level after treatment ([1]; case 6, right ear, 4000 Hz, Apr. 11, 2002, poorest level 18-24 months after treatment, before 90 dB): 90 dB
hearing level after treatment ([1]; case 6, right ear, 8000 Hz, Apr. 11, 2002, poorest level 18-24 months after treatment, before 95 dB): 90 dB
hearing level after treatment, average (500-4000 Hz) ([1]; case 6, right ear, Apr. 11, 2002, poorest level 18-24 months after treatment, before 83.75 dB): 82.5 dB
hearing improved as compared with before the treatment (four-frequency PTA) ([1]; case 6, right ear): 1.25 dB
category of change of hearing, AAO-HNS (1995) criteria ([1]; case 6, water intake): unchanged
hearing level after treatment ([1]; case 7, left ear, 125 Hz, Oct. 10, 2003, poorest level 18-24 months after treatment, before 35 dB): 5 dB
hearing level after treatment ([1]; case 7, left ear, 250 Hz, Oct. 10, 2003, poorest level 18-24 months after treatment, before 40 dB): 5 dB
hearing level after treatment ([1]; case 7, left ear, 500 Hz, Oct. 10, 2003, poorest level 18-24 months after treatment, before 30 dB): 5 dB
hearing level after treatment ([1]; case 7, left ear, 1000 Hz, Oct. 10, 2003, poorest level 18-24 months after treatment, before 20 dB): 5 dB
hearing level after treatment ([1]; case 7, left ear, 2000 Hz, Oct. 10, 2003, poorest level 18-24 months after treatment, before 10 dB): 5 dB
hearing level after treatment ([1]; case 7, left ear, 4000 Hz, Oct. 10, 2003, poorest level 18-24 months after treatment, before 30 dB): 20 dB
hearing level after treatment ([1]; case 7, left ear, 8000 Hz, Oct. 10, 2003, poorest level 18-24 months after treatment, before 40 dB): 45 dB
hearing level after treatment, average (500-4000 Hz) ([1]; case 7, left ear, Oct. 10, 2003, poorest level 18-24 months after treatment, before 22.5 dB): 8.75 dB
hearing improved as compared with before the treatment (four-frequency PTA) ([1]; case 7, left ear): 13.75 dB
category of change of hearing, AAO-HNS (1995) criteria ([1]; case 7, water intake): improved
hearing level after treatment ([1]; case 8, right ear, 125 Hz, Sep. 19, 2003, poorest level 18-24 months after treatment, before 60 dB): 40 dB
hearing level after treatment ([1]; case 8, right ear, 250 Hz, Sep. 19, 2003, poorest level 18-24 months after treatment, before 70 dB): 40 dB
hearing level after treatment ([1]; case 8, right ear, 500 Hz, Sep. 19, 2003, poorest level 18-24 months after treatment, before 60 dB): 35 dB
hearing level after treatment ([1]; case 8, right ear, 1000 Hz, Sep. 19, 2003, poorest level 18-24 months after treatment, before 60 dB): 40 dB
hearing level after treatment ([1]; case 8, right ear, 2000 Hz, Sep. 19, 2003, poorest level 18-24 months after treatment, before 50 dB): 40 dB
hearing level after treatment ([1]; case 8, right ear, 4000 Hz, Sep. 19, 2003, poorest level 18-24 months after treatment, before 65 dB): 60 dB
hearing level after treatment ([1]; case 8, right ear, 8000 Hz, Sep. 19, 2003, poorest level 18-24 months after treatment, before 85 dB): 80 dB
hearing level after treatment, average (500-4000 Hz) ([1]; case 8, right ear, Sep. 19, 2003, poorest level 18-24 months after treatment, before 58.75 dB): 43.75 dB
hearing improved as compared with before the treatment (four-frequency PTA) ([1]; case 8, right ear): 15.0 dB
category of change of hearing, AAO-HNS (1995) criteria ([1]; case 8, water intake): improved
category of therapeutic effect for vertigo, AAO-HNS criteria ([2]; case 3, water intake): complete control
vertiginous attack in 6 months during 18 months-24 months after the treatment ([2]; case 3, water intake, 2 times in 6 months before): 0 time
category of therapeutic effect for vertigo, AAO-HNS criteria ([2]; case 6, water intake): complete control
vertiginous attack in 6 months during 18 months-24 months after the treatment ([2]; case 6, water intake, 4 times estimated in 6 months before): 0 time
category of therapeutic effect for vertigo, AAO-HNS criteria ([2]; case 7, water intake): complete control
vertiginous attack in 6 months during 18 months-24 months after the treatment ([2]; case 7, water intake, 0 time in 6 months before): 0 time
category of therapeutic effect for vertigo, AAO-HNS criteria ([2]; case 8, water intake): complete control
vertiginous attack in 6 months during 18 months-24 months after the treatment ([2]; case 8, water intake, 1 in 6 months before): 0 time
